Experimental data reported in ChEMBL document CHEMBL5303573, “Mapping human microbiome drug metabolism by gut bacteria and their genes” (Nature, 2019).

Assays:
[1] = The drug is tested on Bacteroides caccae strain: ATCC43185 for biotransformation. The drug concentrations were measured before and after a 12-h incubation by liquid-chromatography-coupled mass spectrometry (LC–MS); details: 2 µM
[2] = The drug is tested on Bacteroides fragilis strain: HMW610 for biotransformation. The drug concentrations were measured before and after a 12-h incubation by liquid-chromatography-coupled mass spectrometry (LC–MS); details: 2 µM
[3] = The drug is tested on Bacteroides fragilis strain: HMW615 for biotransformation. The drug concentrations were measured before and after a 12-h incubation by liquid-chromatography-coupled mass spectrometry (LC–MS); details: 2 µM
[4] = The drug is tested on Bacteroides ovatus strain: ATCC8483 for biotransformation. The drug concentrations were measured before and after a 12-h incubation by liquid-chromatography-coupled mass spectrometry (LC–MS); details: 2 µM
[5] = The drug is tested on Bacteroides uniformis strain: ATCC8492 for biotransformation. The drug concentrations were measured before and after a 12-h incubation by liquid-chromatography-coupled mass spectrometry (LC–MS); details: 2 µM
[6] = The drug is tested on Odoribacter splanchnicus strain: fecal isolate for biotransformation. The drug concentrations were measured before and after a 12-h incubation by liquid-chromatography-coupled mass spectrometry (LC–MS); details: 2 µM
[7] = The drug is tested on Parabacteroides merdae strain: ATCC43184 for biotransformation. The drug concentrations were measured before and after a 12-h incubation by liquid-chromatography-coupled mass spectrometry (LC–MS); details: 2 µM
[8] = The drug is tested on Blautia hansenii strain: DSM20583 for biotransformation. The drug concentrations were measured before and after a 12-h incubation by liquid-chromatography-coupled mass spectrometry (LC–MS); details: 2 µM
[9] = The drug is tested on Blautia luti strain: DSM14534 for biotransformation. The drug concentrations were measured before and after a 12-h incubation by liquid-chromatography-coupled mass spectrometry (LC–MS); assay type: ADME; set-up: dose 2 uM, timepoint 0 vs 12 hours; details: 2 µM
[10] = The drug is tested on Dorea formicigenerans strain: ATCC27755 for biotransformation. The drug concentrations were measured before and after a 12-h incubation by liquid-chromatography-coupled mass spectrometry (LC–MS); details: 2 µM
[11] = The drug is tested on Enterococcus faecalis strain: V583 for biotransformation. The drug concentrations were measured before and after a 12-h incubation by liquid-chromatography-coupled mass spectrometry (LC–MS); details: 2 µM
[12] = The drug is tested on Ruminococcus torques strain: ATCC27756 for biotransformation. The drug concentrations were measured before and after a 12-h incubation by liquid-chromatography-coupled mass spectrometry (LC–MS); assay type: ADME; set-up: dose 2 uM, timepoint 0 vs 12 hours; details: 2 µM
[13] = The drug is tested on Edwardsiella tarda strain: ATCC23685 for biotransformation. The drug concentrations were measured before and after a 12-h incubation by liquid-chromatography-coupled mass spectrometry (LC–MS); details: 2 µM
[14] = The drug is tested on Providencia rettgeri strain: DSM1131 for biotransformation. The drug concentrations were measured before and after a 12-h incubation by liquid-chromatography-coupled mass spectrometry (LC–MS); assay type: ADME; set-up: dose 2 uM, timepoint 0 vs 12 hours; details: 2 µM
[15] = bifidobacterium adolescentis, 12 h, 2 µM
Description: The drug is tested on Bifidobacterium adolescentis strain: ATCC 15703 for biotransformation. The drug concentrations were measured before and after a 12-h incubation by liquid-chromatography-coupled mass spectrometry (LC–MS)

[16] = bacteroides thetaiotaomicron, 12 h, 2 µM
Description: The drug is tested on Bacteroides thetaiotaomicron strain: VPI-5482 for biotransformation. The drug concentrations were measured before and after a 12-h incubation by liquid-chromatography-coupled mass spectrometry (LC–MS)

[17] = akkermansia muciniphila, 12 h, 2 µM
Description: The drug is tested on Akkermansia muciniphila strain: ATCC BAA-835 for biotransformation. The drug concentrations were measured before and after a 12-h incubation by liquid-chromatography-coupled mass spectrometry (LC–MS)

[18] = The drug is tested on Bacteroides xylanisolvens strain: DSM18836 for biotransformation. The drug concentrations were measured before and after a 12-h incubation by liquid-chromatography-coupled mass spectrometry (LC–MS); details: 2 µM
[19] = enterocloster bolteae, 12 h, 2 µM
Description: The drug is tested on Clostridium bolteae strain: ATCCBAA-613 for biotransformation. The drug concentrations were measured before and after a 12-h incubation by liquid-chromatography-coupled mass spectrometry (LC–MS)

[20] = limosilactobacillus reuteri cf48-3a, 12 h, 2 µM
Description: The drug is tested on Lactobacillus reuteri CF48-3A strain: BEI HM-102 for biotransformation. The drug concentrations were measured before and after a 12-h incubation by liquid-chromatography-coupled mass spectrometry (LC–MS)

Row | Bacterial Biotransformation [20] | SMILES | Bacterial Biotransformation [1] | Bacterial Biotransformation [2] | Bacterial Biotransformation [3] | Bacterial Biotransformation [4] | Bacterial Biotransformation [5] | Bacterial Biotransformation [6] | Bacterial Biotransformation [7] | Bacterial Biotransformation [8] | Bacterial Biotransformation [9] | Bacterial Biotransformation [10] | Bacterial Biotransformation [11] | Bacterial Biotransformation [12] | Bacterial Biotransformation [13] | Bacterial Biotransformation [14] | Bacterial Biotransformation [15] | Bacterial Biotransformation [16] | Bacterial Biotransformation [17] | Bacterial Biotransformation [18] | Bacterial Biotransformation [19]
1 |  | COc1cc2nc(N3CCN(C(=O)C4COc5ccccc5O4)CC3)nc(N)c2cc1OC.CS(=O)(=O)O (stereo not drawn) [DOXAZOSIN MESYLATE] | Compound NOT metabolized | Compound NOT metabolized | Compound NOT metabolized | Compound NOT metabolized | Compound metabolized | Compound NOT metabolized | Compound NOT metabolized | Compound metabolized | Compound NOT metabolized | Compound NOT metabolized | Compound NOT metabolized | Compound NOT metabolized | Compound NOT metabolized | Compound NOT metabolized | Compound NOT metabolized | Compound NOT metabolized | Compound NOT metabolized |  | 
2 | Compound NOT metabolized | O=C(O)CCc1nc(-c2ccccc2)c(-c2ccccc2)o1 [OXAPROZIN] |  | Compound metabolized | Compound metabolized | Compound NOT metabolized | Compound metabolized | Compound metabolized | Compound NOT metabolized | Compound metabolized | Compound NOT metabolized | Compound NOT metabolized | Compound NOT metabolized | Compound NOT metabolized | Compound NOT metabolized | Compound NOT metabolized | Compound NOT metabolized | Compound metabolized |  | Compound metabolized | Compound NOT metabolized
3 |  | COc1ccc2c3c1O[C@H]1C[C@@H](O)C=C[C@@]31CCN(C)C2 [GALANTAMINE] | Compound NOT metabolized | Compound metabolized | Compound metabolized | Compound metabolized | Compound metabolized | Compound NOT metabolized | Compound NOT metabolized | Compound NOT metabolized | Compound NOT metabolized | Compound NOT metabolized | Compound metabolized | Compound NOT metabolized | Compound NOT metabolized | Compound NOT metabolized | Compound NOT metabolized | Compound metabolized | Compound NOT metabolized | Compound metabolized | Compound NOT metabolized
4 |  | Nc1nc(N)nc(-c2cc(Cl)ccc2Cl)n1.O=C(O)/C=C\C(=O)O [IRSOGLADINE MALEATE] | Compound NOT metabolized | Compound NOT metabolized | Compound NOT metabolized | Compound NOT metabolized | Compound NOT metabolized | Compound NOT metabolized | Compound NOT metabolized | Compound NOT metabolized | Compound NOT metabolized | Compound NOT metabolized | Compound NOT metabolized | Compound NOT metabolized | Compound NOT metabolized | Compound NOT metabolized | Compound NOT metabolized | Compound NOT metabolized | Compound NOT metabolized | Compound NOT metabolized | Compound NOT metabolized
5 |  | CC1OC(OC2C(O)CC(OC3C(O)CC(OC4CCC5(C)C(CCC6C5CCC5(C)C(C7=CC(=O)OC7)CCC65O)C4)OC3C)OC2C)CC(O)C1O (stereo not drawn) | Compound NOT metabolized | Compound metabolized | Compound metabolized | Compound metabolized | Compound metabolized | Compound metabolized | Compound metabolized | Compound metabolized | Compound NOT metabolized | Compound NOT metabolized | Compound NOT metabolized | Compound NOT metabolized | Compound NOT metabolized | Compound NOT metabolized | Compound NOT metabolized | Compound metabolized | Compound NOT metabolized | Compound metabolized | Compound NOT metabolized
6 | Compound NOT metabolized | COc1ccc2cc([C@H](C)C(=O)O)ccc2c1 [NAPROXEN] | Compound NOT metabolized | Compound metabolized | Compound metabolized |  | Compound NOT metabolized | Compound NOT metabolized |  | Compound NOT metabolized | Compound NOT metabolized | Compound NOT metabolized | Compound NOT metabolized | Compound NOT metabolized | Compound NOT metabolized | Compound NOT metabolized |  | Compound NOT metabolized | Compound NOT metabolized | Compound NOT metabolized | Compound NOT metabolized
7 | Compound NOT metabolized | Cc1ccccc1C(OCCN(C)C)c1ccccc1.O=C(O)CC(O)(CC(=O)O)C(=O)O (stereo not drawn) [ORPHENADRINE CITRATE] | Compound NOT metabolized | Compound NOT metabolized | Compound NOT metabolized | Compound NOT metabolized | Compound NOT metabolized | Compound NOT metabolized | Compound NOT metabolized | Compound metabolized | Compound NOT metabolized | Compound NOT metabolized | Compound NOT metabolized | Compound NOT metabolized | Compound NOT metabolized | Compound NOT metabolized |  | Compound NOT metabolized |  |  | 

Row | SMILES | Bacterial Biotransformation [20] | Bacterial Biotransformation [1] | Bacterial Biotransformation [2] | Bacterial Biotransformation [3] | Bacterial Biotransformation [4] | Bacterial Biotransformation [5] | Bacterial Biotransformation [6] | Bacterial Biotransformation [7] | Bacterial Biotransformation [8] | Bacterial Biotransformation [9] | Bacterial Biotransformation [10] | Bacterial Biotransformation [11] | Bacterial Biotransformation [12] | Bacterial Biotransformation [13] | Bacterial Biotransformation [14] | Bacterial Biotransformation [15] | Bacterial Biotransformation [16] | Bacterial Biotransformation [17] | Bacterial Biotransformation [18] | Bacterial Biotransformation [19]
8 | Cc1ccnc2c1NC(=O)c1cccnc1N2C1CC1 [NEVIRAPINE] | Compound NOT metabolized | Compound NOT metabolized | Compound NOT metabolized | Compound NOT metabolized | Compound NOT metabolized |  |  | Compound NOT metabolized | Compound metabolized | Compound NOT metabolized | Compound NOT metabolized | Compound NOT metabolized | Compound NOT metabolized | Compound NOT metabolized | Compound NOT metabolized | Compound NOT metabolized | Compound NOT metabolized | Compound NOT metabolized | Compound NOT metabolized | Compound NOT metabolized
